# According to DBAASP:
# Assays:
# Assay in all cases: ≥ marks a high value that may be exact or a test limit, other limits are often not marked, values filed in µg/mL are converted to µM
# [1] = test system: Escherichia coli ATCC 25922
# [2] = test system: Pseudomonas aeruginosa ATCC 27853
# [3] = test system: Staphylococcus aureus ATCC 29213
# [4] = test system: Staphylococcus epidermidis ATCC 12228
# Escherichia coli = test system: Escherichia coli
# Staphylococcus aureus = test system: Staphylococcus aureus
Compound,MIC [1],MIC [3],also measured
NC(=O)[C@H](Cc1c[nH]c2ccccc12)NC(=O)[C@H](Cc1c[nH]c2ccccc12)NC(=O)[C@H](Cc1c[nH]c2ccccc12)NC(=O)[C@@H]1CCCN1C(=O)[C@H](CCCN=C(N)N)NC(=O)[C@@H]1CCCN1C(=O)[C@H](CCCN=C(N)N)NC(=O)[C@@H]1CCCN1C(=O)[C@H](CCCN=C(N)N)NC(=O)[C@@H]1CCCN1C(=O)[C@H](CCCN=C(N)N)NC(=O)[C@@H](N)CCCN=C(N)N [RRPRPRPRPWWW],40 µM,40 µM,MIC [2]: 20 µM
CC(=O)N[C@@H](CCCCN)C(=O)N[C@@H](CC(C)C)C(=O)N[C@@H](CC(C)C)C(=O)N[C@@H](CCCCN)C(=O)N[C@@H](CC(C)C)C(=O)N[C@@H](CC(C)C)C(=O)N[C@@H](CCCCN)C(=O)N[C@@H](CCCCN)C(=O)N[C@@H](CC(C)C)C(=O)N[C@@H](CC(C)C)C(=O)N[C@@H](CCCCN)C(=O)N[C@@H](CC(C)C)C(=O)N[C@@H](CC(C)C)C(=O)N[C@@H](CCCCN)C(N)=O [KLLKLLKKLLKLLK],20 µM,14.1 µM,–
CC[C@H](C)[C@H](NC(=O)[C@H](CCCN=C(N)N)NC(=O)[C@H](CCC(N)=O)NC(=O)[C@H](Cc1cnc[nH]1)NC(=O)[C@@H](NC(=O)[C@H](CCCN=C(N)N)NC(=O)[C@H](CCCCN)NC(=O)[C@@H](N)Cc1ccccc1)[C@@H](C)CC)C(=O)N[C@@H](CCCCN)C(=O)N[C@@H](CC(=O)O)C(=O)N[C@@H](Cc1ccccc1)C(=O)N[C@@H](CC(C)C)C(=O)N[C@@H](CCCN=C(N)N)C(=O)O [FKRIHQRIKDFLR],5 µM,> 40 µM,–
CC(C)C[C@H](NC(=O)[C@H](CCCCN)NC(=O)[C@H](CC(C)C)NC(=O)[C@H](CC(C)C)NC(=O)[C@H](CCCCN)NC(=O)[C@H](CCCCN)NC(=O)[C@H](CCCCN)NC(=O)[C@H](CC(C)C)NC(=O)[C@H](CCCCN)NC(=O)[C@H](CC(C)C)NC(=O)[C@H](CC(C)C)NC(=O)[C@H](CCCCN)NC(=O)[C@H](CCCCN)NC(=O)[C@@H](N)CC(C)C)C(=O)N[C@@H](C)C(=O)NCC(=O)O [LKKLLKLKKKLLKLAG],5 µM,> 40 µM,–
NCC(=O)N[C@@H](CCCN=C(N)N)C(=O)N[C@@H](CCCN=C(N)N)C(=O)N1CCC[C@H]1C(=O)N[C@@H](CCCN=C(N)N)C(=O)N1CCC[C@H]1C(=O)N[C@@H](CCCN=C(N)N)C(=O)N1CCC[C@H]1C(=O)N[C@@H](CCCN=C(N)N)C(=O)N1CCC[C@H]1C(=O)N[C@@H](Cc1ccccc1)C(=O)N[C@@H](Cc1ccccc1)C(=O)N[C@@H](Cc1ccccc1)C(=O)N[C@@H](Cc1ccccc1)C(=O)N[C@@H](Cc1ccccc1)C(=O)O [GRRPRPRPRPFFFFF],20 µM,2.5 µM,MIC [2]: 20 µM
CC(C)C[C@H](NC(=O)[C@H](CC(N)=O)NC(=O)[C@H](Cc1c[nH]c2ccccc12)NC(=O)[C@H](CCCN=C(N)N)NC(=O)[C@H](C)NC(=O)[C@H](CCCCN)NC(=O)[C@H](CCCCN)NC(=O)CNC(=O)[C@H](CC(C)C)NC(=O)[C@H](Cc1ccc(O)cc1)NC(=O)[C@H](Cc1ccc(O)cc1)NC(=O)CNC(=O)[C@H](Cc1c[nH]c2ccccc12)NC(=O)[C@@H](N)CO)C(=O)O [SWGYYLGKKARWNL],–,–,MIC [4]: > 50 µM
NC(=O)[C@H](Cc1ccccc1)NC(=O)[C@H](Cc1ccccc1)NC(=O)[C@H](Cc1ccccc1)NC(=O)[C@H](Cc1ccccc1)NC(=O)[C@H](Cc1ccccc1)NC(=O)[C@@H]1CCCN1C(=O)[C@H](CCCN=C(N)N)NC(=O)[C@@H]1CCCN1C(=O)[C@H](CCCN=C(N)N)NC(=O)[C@@H]1CCCN1C(=O)[C@H](CCCN=C(N)N)NC(=O)[C@@H]1CCCN1C(=O)[C@H](CCCN=C(N)N)NC(=O)[C@@H](N)CCCN=C(N)N [RRPRPRPRPFFFFF],10 µM,10 µM,MIC [2]: 20 µM
CC[C@H](C)[C@H](NC(=O)[C@H](CCCN=C(N)N)NC(=O)[C@H](CCC(N)=O)NC(=O)[C@@H](NC(=O)[C@H](CCC(N)=O)NC(=O)[C@H](CCCN=C(N)N)NC(=O)[C@H](CCCCN)NC(=O)[C@@H](N)Cc1ccccc1)C(C)C)C(=O)N[C@@H](CCCCN)C(=O)N[C@@H](CC(=O)O)C(=O)N[C@@H](Cc1ccccc1)C(=O)N[C@@H](CC(C)C)C(=O)N[C@@H](CCCN=C(N)N)C(=O)O [FKRQVQRIKDFLR],10 µM,> 40 µM,–
CC[C@H](C)[C@H](NC(=O)[C@@H](N)Cc1ccccc1)C(=O)N[C@@H](CC(C)C)C(=O)N[C@@H](CCCCN)C(=O)N[C@@H](CCCN=C(N)N)C(=O)N[C@@H](CO)C(=O)N[C@@H](Cc1ccc(O)cc1)C(=O)N1CCC[C@H]1C(=O)N[C@@H](CCC(N)=O)C(=O)N[C@@H](Cc1ccc(O)cc1)C(=O)N[C@@H](Cc1ccc(O)cc1)C(N)=O [FILKRSYPQYY],406 µM,> 474 µM,–
CC(C)C[C@H](NC(=O)[C@H](CCCCN)NC(=O)[C@H](CC(C)C)NC(=O)[C@H](CC(C)C)NC(=O)[C@H](CCCCN)NC(=O)[C@H](CCCCN)NC(=O)[C@H](CC(N)=O)NC(=O)[C@H](CC(C)C)NC(=O)[C@H](CCCCN)NC(=O)[C@H](CC(C)C)NC(=O)[C@H](CC(C)C)NC(=O)[C@H](CCCCN)NC(=O)[C@H](CCCCN)NC(=O)[C@@H](N)CC(C)C)C(=O)N[C@@H](C)C(=O)NCC(=O)O [LKKLLKLNKKLLKLAG],2.5 µM,> 40 µM,–
CC(C)C[C@H](NC(=O)[C@H](Cc1ccccc1)NC(=O)[C@@H]1CCCN1C(=O)[C@H](Cc1ccccc1)NC(=O)[C@H](Cc1ccccc1)NC(=O)[C@H](Cc1ccccc1)NC(=O)[C@@H]1CCCN1C(=O)[C@H](Cc1ccccc1)NC(=O)[C@H](CCCN=C(N)N)NC(=O)[C@H](CCCN=C(N)N)NC(=O)[C@@H](N)C(C)C)C(=O)N[C@@H](CCCN=C(N)N)C(=O)N[C@@H](CCCN=C(N)N)C(N)=O [VRRFPFFFPFLRR],–,–,MIC (Escherichia coli): 3.36 µM; MIC (Staphylococcus aureus): 3.36 µM
CC[C@H](C)[C@H](NC(=O)[C@@H](NC(=O)[C@H](CCCCN)NC(=O)[C@@H](NC(=O)[C@H](C)NC(=O)[C@@H](NC(=O)[C@H](Cc1cnc[nH]1)NC(=O)CNC(=O)[C@H](C)NC(=O)[C@H](CC(C)C)NC(=O)[C@H](CC(=O)O)NC(=O)[C@H](CCCCN)NC(=O)[C@H](C)NC(=O)[C@H](C)NC(=O)CNC(=O)[C@H](CCCCN)NC(=O)[C@H](CC(C)C)NC(=O)[C@@H](NC(=O)[C@H](CC(=O)O)NC(=O)[C@H](CC(C)C)NC(=O)[C@@H](NC(=O)CN)C(C)C)[C@@H](C)CC)C(C)C)[C@@H](C)O)C(C)C)C(=O)O [GVLDILKGAAKDLAGHVATKVI],3.6 µM,14.6 µM,–
CC[C@H](C)[C@H](NC(=O)[C@H](Cc1c[nH]c2ccccc12)NC(=O)[C@H](CCCCN)NC(=O)[C@@H](NC(=O)[C@H](CC(C)C)NC(=O)[C@H](CCCCN)NC(=O)CNC(=O)[C@@H](NC(=O)[C@@H](NC(=O)[C@H](CO)NC(=O)[C@@H](NC(=O)[C@@H](NC(=O)[C@H](CCCCN)NC(=O)[C@H](CCC(N)=O)NC(=O)[C@H](C)N)[C@@H](C)CC)[C@@H](C)CC)[C@@H](C)O)[C@@H](C)CC)C(C)C)C(=O)N[C@H](C(=O)N[C@@H](CCCCN)C(=O)N[C@H](C(=O)N[C@H](C(=O)N[C@@H](CC(N)=O)C(=O)N[C@@H](CCCCN)C(=O)N[C@@H](Cc1ccccc1)C(=O)N[C@H](C(=O)N[C@@H](CCCCN)C(=O)N[C@@H](CCCCN)C(=O)O)[C@@H](C)O)C(C)C)[C@@H](C)O)[C@@H](C)CC [AQKIISTIGKLVKWIIKTVNKFTKK],–,–,MIC (Escherichia coli): 2.5 µM; MIC (Staphylococcus aureus): 10.3 µM
CC(C)C[C@H](NC(=O)[C@H](Cc1c[nH]c2ccccc12)NC(=O)[C@H](CCCCN)NC(=O)[C@H](CCCCN)NC(=O)[C@H](C)NC(=O)[C@H](CO)NC(=O)[C@H](Cc1cnc[nH]1)NC(=O)[C@H](CC(C)C)NC(=O)[C@H](Cc1ccccc1)NC(=O)[C@H](CCCCN)NC(=O)[C@@H](N)CCCCN)C(=O)N[C@@H](CCCCN)C(=O)N[C@@H](C)C(=O)N[C@@H](Cc1ccccc1)C(=O)N[C@H](C(=O)N[C@@H](CCCCN)C(=O)N[C@@H](CC(C)C)C(=O)N[C@@H](Cc1ccccc1)C(=O)N[C@@H](CCCCN)C(=O)N[C@@H](CC(N)=O)C(=O)N[C@@H](Cc1c[nH]c2ccccc12)C(=O)O)C(C)C [KKFLHSAKKWLKAFVKLFKNW],–,9.44 µM,–
CC[C@H](C)[C@H](NC(=O)[C@H](Cc1c[nH]c2ccccc12)NC(=O)[C@H](CCCCN)NC(=O)[C@@H](NC(=O)[C@H](CC(C)C)NC(=O)[C@@H](N)CCCCN)C(C)C)C(=O)N[C@H](C(=O)N[C@@H](CCCCN)C(=O)N[C@H](C(=O)N[C@H](C(=O)N[C@@H](CC(N)=O)C(=O)N[C@@H](CCCCN)C(=O)N[C@@H](Cc1ccccc1)C(=O)N[C@H](C(=O)N[C@@H](CCCCN)C(=O)N[C@@H](CCCCN)C(=O)O)[C@@H](C)O)C(C)C)[C@@H](C)O)[C@@H](C)CC [KLVKWIIKTVNKFTKK],–,–,MIC (Escherichia coli): 3.5 µM; MIC (Staphylococcus aureus): 22 µM
CC[C@H](C)[C@H](NC(=O)CN)C(=O)N[C@@H](CCCCN)C(=O)N[C@@H](CCCCN)C(=O)N[C@@H](Cc1c[nH]c2ccccc12)C(=O)N[C@@H](CC(C)C)C(=O)N[C@@H](Cc1cnc[nH]1)C(=O)N[C@@H](CO)C(=O)N[C@@H](C)C(=O)N[C@@H](CCCCN)C(=O)N[C@@H](CCCCN)C(=O)N1CCC[C@H]1C(=O)NCC(=O)N[C@@H](CCCCN)C(=O)N[C@@H](CCCCN)C(=O)N[C@@H](Cc1ccccc1)C(=O)N[C@H](C(=O)N[C@@H](CCCCN)C(=O)N[C@@H](CCCCN)C(=O)N[C@H](C(=O)N[C@@H](CCSC)C(=O)N[C@@H](CC(N)=O)C(=O)N[C@@H](CO)C(N)=O)[C@@H](C)CC)C(C)C [GIKKWLHSAKKPGKKFVKKIMNS],5 µM,–,MIC [4]: 5 µM
CC(C)[C@H](NC(=O)[C@H](Cc1c[nH]c2ccccc12)NC(=O)[C@H](CCCCN)NC(=O)[C@@H](N)CCCN=C(N)N)C(=O)N[C@@H](C)C(=O)N[C@@H](Cc1c[nH]c2ccccc12)C(=O)N[C@@H](CCCN=C(N)N)C(=O)N[C@@H](CC(N)=O)C(=O)N[C@@H](CCCN=C(N)N)C(=O)O [RKWVAWRNR],98.3 µM,49.2 µM,–
